From ChEMBL document CHEMBL1201862, “PubChem BioAssay data set” (2004)
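Grown in 96-well plates, cells were treated for 48 hours with each compound at five concentrations. Insufficient inhibition: endpoint recorded as highest concentration tested. Abbreviation: GI50, concentration required for 50% inhibition of growth.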 Activity calls are given as the source filed them. Rule as the data show it: active = GI50 up to about 1.1 µM and inactive = higher.

Tests used:
Test in all cases: inhibition of tumour cell growth, NCI panel, 48 h
[1] = tested on: SK-OV-3
[2] = tested on: UO-31
[3] = tested on: HOP-92
[4] = tested on: SF-295
[5] = tested on: OVCAR-4
[6] = tested on: NCI-H460
[7] = tested on: OVCAR-3
[8] = tested on: CCRF-CEM
[9] = tested on: A549
[10] = tested on: HCT-116
[11] = tested on: SK-MEL-2
[12] = tested on: OVCAR-8
[13] = tested on: SF-268
[14] = tested on: KM12
[15] = tested on: NCI-H226
[16] = tested on: NCI-H522

Measured: GI50

O=C(NC(=O)c1cn(CCN(CCO)C(=O)NCCCCCCNC(=O)N(CCO)CCn2cc(C(=O)NC(=O)OCc3ccccc3)c(=O)[nH]c2=O)c(=O)[nH]c1=O)OCc1ccccc1
inactive: [1] > 100 µM | [2] > 100 µM | [3] > 100 µM | [4] > 100 µM | [5] > 100 µM | [6] > 100 µM | [7] > 100 µM | [8] > 100 µM | [9] > 100 µM | [10] > 100 µM | [11] > 100 µM | [12] > 100 µM

COc1cccc(NC(=O)C(=O)C(C(C)=O)c2nc3ccc(Cl)cc3nc2O)c1 (configuration not stated)
inactive: [1] > 100 µM | [2] > 100 µM | [3] > 100 µM | [4] > 100 µM | [5] > 100 µM | [13] > 100 µM | [6] > 100 µM | [7] > 100 µM | [14] > 100 µM | [8] > 100 µM | [15] > 100 µM | [9] > 100 µM | [10] > 100 µM | [11] > 100 µM | [12] > 100 µM

CN(C)c1ccc(-c2nc(N)nc3c2CCCC3)cc1
inactive: [1] > 100 µM | [2] 41.5 µM | [4] 38.5 µM | [13] 47.2 µM | [6] 65.2 µM | [7] 23.4 µM | [14] 54 µM | [8] 50.5 µM | [15] 51.3 µM | [9] 52.8 µM | [10] 38.3 µM | [11] 56.8 µM | [16] 25.2 µM | [12] 74.5 µM

O=C(N/C(=C\c1ccccc1O)c1nc2ccccc2[nH]1)c1ccccc1
inactive: [1] 36.1 µM | [2] > 100 µM | [3] 23.8 µM | [5] > 100 µM | [13] 37.3 µM | [6] > 100 µM | [7] > 100 µM | [14] > 100 µM | [8] > 100 µM | [9] > 100 µM | [10] 89.7 µM | [11] 74.1 µM | [16] 45.2 µM | [12] 66.1 µM

CC(=O)C1C(c2ccc(N(C)C)cc2)c2cc3c(cc2OC1(C)O)OCO3 (configuration not stated)
inactive: [1] 55.3 µM | [2] 29.4 µM | [3] 8.32 µM | [4] 28.7 µM | [5] 33.7 µM | [6] 34.4 µM | [7] 35 µM | [8] 32.5 µM | [9] 37.6 µM | [10] 39.8 µM | [11] 33.3 µM | [12] 73.5 µM
